{"source": "patent US20050112573A1", "about": "“Method of detecting toxic substance” (priority 2001, published 2005)", "test_system": "yeast genes (level of expressed mRNA)", "assay": "DNA chip analysis of expressed mRNA of yeast genes after 2 h culture with a toxic chemical substance", "format": "cell-based, Saccharomyces cerevisiae S288C", "procedure,_shortened": "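Values are treated-to-control fluorescence ratios from a whole-yeast-genome DNA chip (65° C, over 12 h hybridization) using Cy3/Cy5-labelled cDNA from mRNA. Log-phase S288C cells in YPD at 25° C were exposed 2 h to a toxicant at sublethal, growth-inhibiting concentration.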"}
{"substance": "γ-hexachlorocyclohexane [(7)]", "values": [{"measurement": "The level of expressed mRNA in the presence of chemical substance/", "setting": "yeast gene YNL074C, ratio to control without chemical substance, 2 h culture", "value": 1.1}, {"measurement": "The level of expressed mRNA in the presence of chemical substance/", "setting": "yeast gene YNL092W, ratio to control without chemical substance, 2 h culture", "value": 1.6}, {"measurement": "The level of expressed mRNA in the presence of chemical substance/The level of expressed mRNA in the absence of chemical substance", "setting": "yeast gene YNL093W", "value": 1.4}, {"measurement": "The level of expressed mRNA in the presence of chemical substance/", "setting": "yeast gene YNL115C, ratio to control without chemical substance, 2 h culture", "value": 2.4}, {"measurement": "The level of expressed mRNA in the presence of chemical substance/", "setting": "yeast gene YNL156C, ratio to control without chemical substance, 2 h culture", "value": 1.9}, {"measurement": "The level of expressed mRNA in the presence of chemical substance/", "setting": "yeast gene YNL234W, ratio to control without chemical substance, 2 h culture", "value": 1.2}, {"measurement": "The level of expressed mRNA in the presence of chemical substance/", "setting": "yeast gene YNL281W, ratio to control without chemical", "value": 1.2}, {"measurement": "The level of expressed mRNA in the presence of chemical substance/", "setting": "yeast gene YNL305C, ratio to control without chemical", "value": 1.7}, {"measurement": "The level of expressed mRNA in the presence of chemical substance/The level of expressed mRNA in the absence of chemical substance", "setting": "yeast gene YNL333W", "value": 2.9}, {"measurement": "The level of expressed mRNA in the presence of chemical substance/The level of expressed mRNA in the absence of chemical substance", "setting": "yeast gene YNR010W", "value": 1.5}, {"measurement": "The level of expressed mRNA in the presence of chemical substance/", "setting": "yeast gene YNR068C, ratio to control without chemical", "value": 1.8}, {"measurement": "The level of expressed mRNA in the presence of chemical substance/The level of expressed mRNA in the absence of chemical substance", "setting": "yeast gene YNR069C", "value": 1.4}, {"measurement": "The level of expressed mRNA in the presence of chemical substance/in the absence of chemical substance", "setting": "yeast gene YNR072W", "value": 1.5}, {"measurement": "The level of expressed mRNA in the presence of chemical substance/The level of expressed mRNA in the absence of chemical substance", "setting": "yeast gene YOL013C", "value": 1.7}, {"measurement": "The level of expressed mRNA in the presence of chemical substance/", "setting": "yeast gene YOL032W, ratio to control without chemical", "value": 1.4}, {"measurement": "The level of expressed mRNA in the presence of chemical substance/", "setting": "yeast gene YOL036W, ratio to control without chemical", "value": 1.0}, {"measurement": "The level of expressed mRNA in the presence of chemical substance/", "setting": "yeast gene YOL047C, ratio to control without chemical", "value": 1.3}, {"measurement": "The level of expressed mRNA in the presence of chemical substance/", "setting": "yeast gene YOL071W, ratio to control without chemical", "value": 2.0}, {"measurement": "The level of expressed mRNA in the presence of chemical substance/", "setting": "yeast gene YOL082W, ratio to control without chemical", "value": 2.5}, {"measurement": "The level of expressed mRNA in the presence of chemical substance/", "setting": "yeast gene YOL083W, ratio to control without chemical", "value": 3.1}, {"measurement": "The level of expressed mRNA in the presence of chemical substance/in the absence of chemical substance", "setting": "yeast gene YOL096C", "value": 1.7}, {"measurement": "The level of expressed mRNA in the presence of chemical substance/", "setting": "yeast gene YOL117W, ratio to control without chemical", "value": 1.6}, {"measurement": "The level of expressed mRNA in the presence of chemical substance/", "setting": "yeast gene YOL131W, ratio to control without chemical", "value": 1.3}, {"measurement": "The level of expressed mRNA in the presence of chemical substance/", "setting": "yeast gene YOL150C, ratio to control without chemical substance, 2 h culture", "value": 2.4}, {"measurement": "The level of expressed mRNA in the presence of chemical substance/", "setting": "yeast gene YOL162W, ratio to control without chemical", "value": 2.0}, {"measurement": "The level of expressed mRNA in the presence of chemical substance/The level of expressed mRNA in the absence of chemical substance", "setting": "yeast gene YOL164W", "value": 2.2}, {"measurement": "The level of expressed mRNA in the presence of chemical substance/", "setting": "yeast gene YOR019W, ratio to control without chemical", "value": 2.8}, {"measurement": "The level of expressed mRNA in the presence of chemical substance/The level of expressed mRNA in the absence of chemical substance", "setting": "yeast gene YOR036W", "value": 1.8}, {"measurement": "The level of expressed mRNA in the presence of chemical substance/The level of expressed mRNA in the absence of chemical substance", "setting": "yeast gene YOR117W", "value": 3.3}, {"measurement": "The level of expressed mRNA in the presence of chemical substance/The level of expressed mRNA in the absence of chemical substance", "setting": "yeast gene YOR124C", "value": 1.1}, {"measurement": "The level of expressed mRNA in the presence of chemical substance/The level of expressed mRNA in the absence of chemical substance", "setting": "yeast gene YOR132W", "value": 1.4}, {"measurement": "The level of expressed mRNA in the presence of chemical substance/The level of expressed mRNA in the absence of chemical substance", "setting": "yeast gene YOR157C", "value": 1.2}, {"measurement": "The level of expressed mRNA in the presence of chemical substance/in the absence of chemical substance", "setting": "yeast gene YOR180C", "value": 0.8}, {"measurement": "The level of expressed mRNA in the presence of chemical substance/The level of expressed mRNA in the absence of chemical substance", "setting": "yeast gene YOR181W", "value": 0.7}, {"measurement": "The level of expressed mRNA in the presence of chemical substance/The level of expressed mRNA in the absence of chemical substance", "setting": "yeast gene YOR185C", "value": 1.3}, {"measurement": "The level of expressed mRNA in the presence of chemical substance/", "setting": "yeast gene YOR197W, ratio to control without chemical", "value": 0.9}, {"measurement": "The level of expressed mRNA in the presence of chemical substance/The level of expressed mRNA in the absence of chemical substance", "setting": "yeast gene YOR198C", "value": 1.6}, {"measurement": "The level of expressed mRNA in the presence of chemical substance/The level of expressed mRNA in the absence of chemical substance", "setting": "yeast gene YOR259C", "value": 1.3}, {"measurement": "The level of expressed mRNA in the presence of chemical substance/The level of expressed mRNA in the absence of chemical substance", "setting": "yeast gene YOR261C", "value": 1.9}, {"measurement": "The level of expressed mRNA in the presence of chemical substance/The level of expressed mRNA in the absence of chemical substance", "setting": "yeast gene YOR288C", "value": 2.0}, {"measurement": "The level of expressed mRNA in the presence of chemical substance/The level of expressed mRNA in the absence of chemical substance", "setting": "yeast gene YOR355W", "value": 1.1}, {"measurement": "The level of expressed mRNA in the presence of chemical substance/in the absence of chemical substance", "setting": "yeast gene YOR363C", "value": 0.7}, {"measurement": "The level of expressed mRNA in the presence of chemical substance/The level of expressed mRNA in the absence of chemical substance", "setting": "yeast gene YOR383C", "value": 8.0}, {"measurement": "The level of expressed mRNA in the presence of chemical substance/", "setting": "yeast gene YPL087W, ratio to control without chemical", "value": 4.2}, {"measurement": "The level of expressed mRNA in the presence of chemical substance/The level of expressed mRNA in the absence of chemical substance", "setting": "yeast gene YPL089C", "value": 0.9}, {"measurement": "The level of expressed mRNA in the presence of chemical substance/The level of expressed mRNA in the absence of chemical substance", "setting": "yeast gene YPL109C", "value": 1.8}, {"measurement": "The level of expressed mRNA in the presence of chemical substance/The level of expressed mRNA in the absence of chemical substance", "setting": "yeast gene YPL149W", "value": 1.2}, {"measurement": "The level of expressed mRNA in the presence of chemical substance/The level of expressed mRNA in the absence of chemical substance", "setting": "yeast gene YPL154C", "value": 1.5}, {"measurement": "The level of expressed mRNA in the presence of chemical substance/", "setting": "yeast gene YPL196W, ratio to control without chemical", "value": 2.4}, {"measurement": "The level of expressed mRNA in the presence of chemical substance/", "setting": "yeast gene YPL206C, ratio to control without chemical", "value": 1.2}, {"measurement": "The level of expressed mRNA in the presence of chemical substance/", "setting": "yeast gene YPL222W, ratio to control without chemical", "value": 1.1}, {"measurement": "The level of expressed mRNA in the presence of chemical substance/", "setting": "yeast gene YPR023C, ratio to control without chemical", "value": 1.2}, {"measurement": "The level of expressed mRNA in the presence of chemical substance/The level of expressed mRNA in the absence of chemical substance", "setting": "yeast gene YPR103W", "value": 1.6}, {"measurement": "The level of expressed mRNA in the presence of chemical substance/The level of expressed mRNA in the absence of chemical substance", "setting": "yeast gene YPR108W", "value": 1.6}, {"measurement": "The level of expressed mRNA in the presence of chemical substance/", "setting": "yeast gene YPR151C, ratio to control without chemical", "value": 4.4}, {"measurement": "The level of expressed mRNA in the presence of chemical substance/in the absence of chemical substance", "setting": "yeast gene YPR184W", "value": 1.3}]}
